Measured values: ChEMBL document CHEMBL3885881, “DrugMatrix”

Species on record: Rattus norvegicus
Assay: DrugMatrix - Regimen: Daily Repeat
Format: toxicity, organism-based, Sprague-Dawley
Set-up: regimen Daily Repeat, gender Male, age 6-8 weeks
Conditions: in vivo, iv, 0.4 mg/kg, dose level Low, vehicle 100 % SALINE; for ABSOLUTE BASOPHIL / ABSOLUTE EOSINOPHIL / ABSOLUTE LYMPHOCYTE / ABSOLUTE MONOCYTE / ABSOLUTE SEGMENTED NEUTROPHIL / BASOPHIL / EOSINOPHIL / ERYTHROCYTE COUNT / HEMATOCRIT / HEMOGLOBIN / LEUKOCYTE COUNT / LYMPHOCYTE / MEAN CORPUSCULAR HEMOGLOBIN / MEAN CORPUSCULAR HEMOGLOBIN CONCENTRATION / MEAN CORPUSCULAR VOLUME / MONOCYTE / NEUTROPHIL / NUCLEATED RED BLOOD CELLS / PLATELET COUNT: tissue Blood; for ALANINE AMINOTRANSFERASE / ALBUMIN / ALKALINE PHOSPHATASE / ASPARTATE AMINOTRANSFERASE / BLOOD UREA NITROGEN / CARBON DIOXIDE / CHLORIDE / CHOLESTEROL / CREATINE PHOSPHOKINASE / CREATININE / GLUCOSE / LACTATE DEHYDROGENASE / LIPASE / PHOSPHORUS / POTASSIUM / SODIUM / TOTAL BILIRUBIN / TOTAL PROTEIN / URIC ACID: tissue Plasma

CCCCN1CCCC[C@H]1C(=O)Nc1c(C)cccc1C [LEVOBUPIVACAINE]
ABSOLUTE BASOPHIL (72 h, time 3 day): 0 CELLS/uL | ABSOLUTE EOSINOPHIL (72 h, time 3 day): 254.67 CELLS/uL | ABSOLUTE LYMPHOCYTE (72 h, time 3 day): 15126.67 CELLS/uL | ABSOLUTE MONOCYTE (72 h, time 3 day): 468.33 CELLS/uL | ABSOLUTE SEGMENTED NEUTROPHIL (72 h, time 3 day): 1383.67 CELLS/uL | BASOPHIL (72 h, time 3 day): 0% | EOSINOPHIL (72 h, time 3 day): 1.33% | ERYTHROCYTE COUNT (72 h, time 3 day): 5.99 x10E6/uL | HEMATOCRIT (72 h, time 3 day): 37.7% | HEMOGLOBIN (72 h, time 3 day): 13.83 G/DL | LEUKOCYTE COUNT (72 h, time 3 day): 17.23 x10E3/uL | LYMPHOCYTE (72 h, time 3 day): 88.33% | MEAN CORPUSCULAR HEMOGLOBIN (72 h, time 3 day): 23.17 pg | MEAN CORPUSCULAR HEMOGLOBIN CONCENTRATION (72 h, time 3 day): 36.7 G/DL | MEAN CORPUSCULAR VOLUME (72 h, time 3 day): 63.07 fL | MONOCYTE (72 h, time 3 day): 2.67% | NEUTROPHIL (72 h, time 3 day): 7.67% | NUCLEATED RED BLOOD CELLS (72 h, time 3 day): 0 /100WBC | PLATELET COUNT (72 h, time 3 day): 1404.67 x10E3/uL | ALANINE AMINOTRANSFERASE (72 h, time 3 day): 48.33 u/L | ALBUMIN (72 h, time 3 day): 4.3 G/DL | ALKALINE PHOSPHATASE (72 h, time 3 day): 344.33 u/L | ASPARTATE AMINOTRANSFERASE (72 h, time 3 day): 82.67 u/L | BLOOD UREA NITROGEN (72 h, time 3 day): 17.33 mg/dL | CARBON DIOXIDE (72 h, time 3 day): 22 mmol/L | CHLORIDE (72 h, time 3 day): 106 MEQ/L | CHOLESTEROL (72 h, time 3 day): 74 mg/dL | CREATINE PHOSPHOKINASE (72 h, time 3 day): 243 u/L | CREATININE (72 h, time 3 day): 0.23 mg/dL | GLUCOSE (72 h, time 3 day): 167.67 mg/dL | LACTATE DEHYDROGENASE (72 h, time 3 day): 317 u/L | LIPASE (72 h, time 3 day): 9 u/L | PHOSPHORUS (72 h, time 3 day): 13.87 mg/dL | POTASSIUM (72 h, time 3 day): 6.74 MEQ/L | SODIUM (72 h, time 3 day): 148.9 MEQ/L | TOTAL BILIRUBIN (72 h, time 3 day): 0.2 mg/dL | TOTAL PROTEIN (72 h, time 3 day): 6.3 G/DL | URIC ACID (72 h, time 3 day): 2.5 mg/dL | ABSOLUTE BASOPHIL (120 h, time 5 day): 0 CELLS/uL | ABSOLUTE EOSINOPHIL (120 h, time 5 day): 140.33 CELLS/uL | ABSOLUTE LYMPHOCYTE (120 h, time 5 day): 13101.33 CELLS/uL | ABSOLUTE MONOCYTE (120 h, time 5 day): 294.33 CELLS/uL | ABSOLUTE SEGMENTED NEUTROPHIL (120 h, time 5 day): 1864 CELLS/uL | BASOPHIL (120 h, time 5 day): 0% | EOSINOPHIL (120 h, time 5 day): 1% | ERYTHROCYTE COUNT (120 h, time 5 day): 5.93 x10E6/uL | HEMATOCRIT (120 h, time 5 day): 37% | HEMOGLOBIN (120 h, time 5 day): 14 G/DL | LEUKOCYTE COUNT (120 h, time 5 day): 15.4 x10E3/uL | LYMPHOCYTE (120 h, time 5 day): 85.33% | MEAN CORPUSCULAR HEMOGLOBIN (120 h, time 5 day): 23.6 pg | MEAN CORPUSCULAR HEMOGLOBIN CONCENTRATION (120 h, time 5 day): 37.83 G/DL | MEAN CORPUSCULAR VOLUME (120 h, time 5 day): 62.47 fL | MONOCYTE (120 h, time 5 day): 2% | NEUTROPHIL (120 h, time 5 day): 11.67% | NUCLEATED RED BLOOD CELLS (120 h, time 5 day): 0.33 /100WBC | PLATELET COUNT (120 h, time 5 day): 1119 x10E3/uL | ALANINE AMINOTRANSFERASE (120 h, time 5 day): 67.67 u/L | ALBUMIN (120 h, time 5 day): 4.13 G/DL | ALKALINE PHOSPHATASE (120 h, time 5 day): 394 u/L | ASPARTATE AMINOTRANSFERASE (120 h, time 5 day): 122.67 u/L | BLOOD UREA NITROGEN (120 h, time 5 day): 20 mg/dL | CARBON DIOXIDE (120 h, time 5 day): 24.67 mmol/L | CHLORIDE (120 h, time 5 day): 107.33 MEQ/L | CHOLESTEROL (120 h, time 5 day): 54.33 mg/dL | CREATINE PHOSPHOKINASE (120 h, time 5 day): 430.33 u/L | CREATININE (120 h, time 5 day): 0.2 mg/dL | GLUCOSE (120 h, time 5 day): 154.33 mg/dL | LACTATE DEHYDROGENASE (120 h, time 5 day): 798.67 u/L | LIPASE (120 h, time 5 day): 8.67 u/L | PHOSPHORUS (120 h, time 5 day): 13.03 mg/dL | POTASSIUM (120 h, time 5 day): 5.58 MEQ/L | SODIUM (120 h, time 5 day): 148.47 MEQ/L | TOTAL BILIRUBIN (120 h, time 5 day): 0.1 mg/dL | TOTAL PROTEIN (120 h, time 5 day): 6.2 G/DL | URIC ACID (120 h, time 5 day): 1.57 mg/dL
